Results as given in patent EP1619246A1, “RNA dependent RNA polymerases from coronavirus and their use in molecular biology and drug screening” (Université de la Méditerranée, Aix-Marseille II, priority 2004, dated 2006).

Target: SARS CoV nsp8 RNA dependent RNA polymerase, N-terminally His-tagged (SARS-CoV replicase residues 3920-4117), SEQ ID NO. 1 (Severe acute respiratory syndrome coronavirus, UniProt P0C6X7)
Experiment: biochemical
Format: biochemical

| Structure (SMILES) | IC50 | Nsp8 activity inhibition in presence of 50 µM 3'-deoxy GTP | nsp8 polymerase activity in presence of Rifampicine (inhibitor of the bacterial polymerase) |
| --- | --- | --- | --- |
| Nc1nc2c(ncn2[C@@H]2O[C@H](COP(=O)(O)OP(=O)(O)OP(=O)(O)O)C[C@H]2O)c(=O)[nH]1 [3'-deoxy GTP, 3'-deoxy-GTP] | ~80 nM | can be inhibited | – |
| CO[C@H]1/C=C/O[C@@]2(C)Oc3c(C)c(O)c4c(O)c(c(/C=N/N5CCN(C)CC5)c(O)c4c3C2=O)NC(=O)/C(C)=C\C=C\[C@H](C)[C@H](O)[C@@H](C)[C@@H](O)[C@@H](C)[C@H](OC(C)=O)[C@@H]1C [Rifampicine] | – | – | activity detected |
